Laboratory results reported in article PMC10247784, “Physiological activation of human and mouse bitter taste receptors by bile acids” (Communications Biology, 2023).

Biological target: T1, mouse Tas2r126 (Mus musculus, UniProt P59532)
T1 construct: expressed in transfected cells; host or cells: HEK293T-Gα16gust44
T1 sequence (P59532 1-308): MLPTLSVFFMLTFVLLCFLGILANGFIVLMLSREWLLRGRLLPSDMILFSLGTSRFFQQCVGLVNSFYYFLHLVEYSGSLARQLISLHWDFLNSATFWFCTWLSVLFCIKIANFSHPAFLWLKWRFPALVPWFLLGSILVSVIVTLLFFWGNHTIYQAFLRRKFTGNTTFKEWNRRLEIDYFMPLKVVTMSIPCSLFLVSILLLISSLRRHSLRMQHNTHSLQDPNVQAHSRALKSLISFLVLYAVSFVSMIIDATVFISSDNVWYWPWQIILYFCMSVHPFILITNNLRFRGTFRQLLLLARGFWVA
Experiment: Calcium imaging assay (FLIPR), HEK293T-Gα16gust44 cells transfected with mouse Tas2r126
Assay type: cell-based
Details: for Δ F/F: Tas2r126
Procedure: This set of bile acids was chosen because of their commercial availability in high purities, their diversity within the class of bile acids and their previous detection and quantitation in human blood. Stock solutions were prepared in DMSO.
As basal growth medium for the HEK293T-Gα16gust44 cell line[17],[59] served Dulbecco’s modified eagle medium (DMEM) (Thermo Fisher Scientific, Darmstadt, Germany) supplemented with 10 % fetal bovine serum (Sigma-Aldrich, Steinheim, Germany), 2 mM L-glutamine (Sigma-Aldrich, Steinheim, Germany), 100 units/ml penicillin (Sigma Aldrich, Steinheim, Germany) and 100 µg/ml streptomycin (Sigma Aldrich, Steinheim, Germany). Growth conditions were 37 °C, 5 % CO2 and saturated air-humidity[60].
HEK293T-Gα16gust44 cells were seeded on poly-D-lysine (10 µg/ml) coated 96-well plates to reach a confluence of 40-60 % the next day. For transient transfection 150 ng of plasmid DNA containing the receptor of interest and 0.3 µl lipofectamine 2000 (Thermo Fisher Scientific, Darmstadt, Germany) per well were used and transfection took place according to the manual of lipofectamine 2000. […] The empty vector DNA (mock) was transfected as negative control[14],[41].
Cells were loaded using the calcium-sensitive fluorescent dye Fluo-4-AM (Abcam, Cambridge, Great Britain) in the presence of 2.5 mM probenecid (Sigma-Aldrich, Steinheim, Germany) the day after transfection[13],[41]. 1 h after loading, cells were washed with C1 buffer using a BioTek Cell Washer, incubated in the dark for half an hour and washed again. For automated agonist application and measurement of fluorescence changes, a FLIPR^TETRA device (Molecular Devices, San José, United States) was used. Viability of cells was tested by application of 100 nM Somatostatin 14 (Bachem, Bubendorf, Switzerland)[42].
Measured data were negative control corrected by subtracting the signal of the mock-transfected cells and exported to Microsoft Excel using the FLIPR software ScreenWorks 4.2. In Microsoft Excel software, standardization of maximum fluorescence intensities to the basal fluorescence and normalization to the buffer-only control was done to calculate the relative fluorescence changes (ΔF/F).
Initial screening experiments performed in duplicate wells were confirmed by at least one replication and representative traces were selected for display. All dose-response relationships were determined by three independent experiments (biological replicates) performed in duplicates (technical replicates). Threshold concentrations, defined as lowest substance concentrations leading to statistically significant elevated fluorescence changes in receptor-transfected cells compared with empty vector-transfected cells, were determined using SigmaPlot with Student’s t-test to evaluate statistical significance (p < 0.01).

SMILES: C[C@H](CCC(=O)NCC(=O)O)[C@H]1CC[C@H]2[C@@H]3[C@H](O)C[C@@H]4C[C@H](O)CC[C@]4(C)[C@H]3C[C@H](O)[C@]12C [Glycocholic Acid, glycocholic acid]
- Δ F/F (conc. 0,01 mM): 0.008892
- Δ F/F (conc. 0,1 mM): 0.01338
- Δ F/F (conc. 0,03 mM): 0.009319
- Δ F/F (conc. 0,3 mM): 0.02767
- Δ F/F (conc. 0,001 mM): 0.01077
- Δ F/F (conc. 1 mM): 0.17
- Δ F/F (conc. 0,003 mM): 0.01208
- RLU (Time 0 s): 0 RLU
- RLU (Time 2 s): -8.029 RLU
- RLU (Time 4 s): 1.1384 RLU
- RLU (Time 6 s): 10.4148 RLU
- RLU (Time 8 s): -13.1228 RLU
- RLU (Time 12 s): 17.4885 RLU
- RLU (Time 14 s): -0.7257 RLU
- RLU (Time 16 s): -10.5283 RLU
- RLU (Time 18 s): 16.8146 RLU
- RLU (Time 18.781 s): 23.6211 RLU
- RLU (Time 20.781 s): -40.338 RLU
- RLU (Time 22.781 s): 22.3326 RLU
- RLU (Time 24.781 s): 63.7084 RLU
- RLU (Time 26.781 s): 76.1804 RLU
- RLU (Time 28.781 s): 137.207 RLU
- RLU (Time 30.781 s): 214.617 RLU
- RLU (Time 32.781 s): 318.834 RLU
- RLU (Time 34.781 s): 384.223 RLU
- RLU (Time 36.781 s): 455.203 RLU
- RLU (Time 38.781 s): 531.38 RLU
- RLU (Time 40.781 s): 571.264 RLU
- RLU (Time 42.781 s): 599.999 RLU
- RLU (Time 44.781 s): 648.8 RLU
- RLU (Time 46.781 s): 709.576 RLU
- RLU (Time 48.781 s): 742.486 RLU
- RLU (Time 50.781 s): 750.019 RLU
- RLU (Time 52.781 s): 771.673 RLU
- RLU (Time 54.781 s): 762.339 RLU
- RLU (Time 56.781 s): 801.528 RLU
- RLU (Time 58.781 s): 778.328 RLU
- RLU (Time 60.781 s): 814.918 RLU
- RLU (Time 62.781 s): 813.898 RLU
- RLU (Time 64.781 s): 822.442 RLU
- RLU (Time 66.781 s): 857.883 RLU
- RLU (Time 68.781 s): 851.231 RLU
- RLU (Time 70.781 s): 849.562 RLU
- RLU (Time 72.781 s): 871.931 RLU
- RLU (Time 74.781 s): 863.674 RLU
- RLU (Time 76.781 s): 844.593 RLU
- RLU (Time 78.781 s): 886.207 RLU
- RLU (Time 80.781 s): 865.546 RLU
- RLU (Time 82.781 s): 883.065 RLU
- RLU (Time 84.781 s): 898.032 RLU
- RLU (Time 86.781 s): 896.748 RLU
- RLU (Time 88.781 s): 900.918 RLU
- RLU (Time 90.781 s): 874.944 RLU
- RLU (Time 92.781 s): 885.691 RLU
- RLU (Time 94.781 s): 894.456 RLU
- RLU (Time 96.781 s): 901.176 RLU
- RLU (Time 98.781 s): 886.538 RLU
- RLU (Time 100.781 s): 892.555 RLU
- RLU (Time 102.781 s): 881.874 RLU
- RLU (Time 104.781 s): 894.645 RLU
- RLU (Time 106.781 s): 887.982 RLU
- RLU (Time 108.781 s): 886.297 RLU
- RLU (Time 110.781 s): 884.059 RLU
- RLU (Time 112.781 s): 887.824 RLU
- RLU (Time 114.781 s): 848.107 RLU
- RLU (Time 116.781 s): 861.685 RLU
- RLU (Time 118.781 s): 828.869 RLU
- RLU (Time 120.781 s): 825.037 RLU
- RLU (Time 122.781 s): 836.581 RLU
- RLU (Time 124.781 s): 866.188 RLU
- RLU (Time 126.781 s): 858.575 RLU
- RLU (Time 128.781 s): 826.803 RLU
- RLU (Time 130.781 s): 818.964 RLU
- RLU (Time 132.781 s): 847.33 RLU
- RLU (Time 134.781 s): 852.99 RLU
- RLU (Time 136.781 s): 809.769 RLU
- RLU (Time 137.563 s): 804.878 RLU
- RLU (Time 143.563 s): 793.514 RLU
- RLU (Time 149.563 s): 748.056 RLU
- RLU (Time 155.563 s): 797.54 RLU
- RLU (Time 161.563 s): 777.219 RLU
- RLU (Time 167.563 s): 736.981 RLU
- RLU (Time 173.563 s): 734.04 RLU
- RLU (Time 179.563 s): 691.98 RLU
- RLU (Time 185.563 s): 705.69 RLU
- RLU (Time 191.563 s): 730.013 RLU
- RLU (Time 197.563 s): 719.476 RLU
- RLU (Time 203.563 s): 676.213 RLU
- RLU (Time 209.563 s): 680.042 RLU
- RLU (Time 215.563 s): 670.332 RLU
- RLU (Time 221.563 s): 696.914 RLU
- RLU (Time 227.563 s): 687.176 RLU
- RLU (Time 233.563 s): 674.703 RLU
- RLU (Time 239.563 s): 658.755 RLU
- RLU (Time 245.563 s): 686.39 RLU
- RLU (Time 293.563 s): 673.116 RLU
- RLU (Time 299.563 s): 656.796 RLU
- RLU (Time 305.563 s): 663.675 RLU
- RLU (Time 311.563 s): 633.551 RLU
- RLU (Time 317.563 s): 673.002 RLU
- RLU (Time 323.563 s): 666.023 RLU
- RLU (Time 329.563 s): 652.752 RLU
- RLU (Time 335.563 s): 658.256 RLU
- RLU (Time 341.563 s): 702.617 RLU
- RLU (Time 347.563 s): 659.503 RLU
- RLU (Time 353.563 s): 654.507 RLU
- RLU (Time 359.563 s): 650.344 RLU
- Activation threshold concentration Tas2r126 (p < 0.01 vs empty vector): 100 µM
